Test results taken from ChEMBL document CHEMBL1909528, “Synthesis and 2D QSAR of O-sulphonated β-aminols derivatives as novel antifungal and antibacterial agents” (Bioorg Med Chem Lett, 2011).

Legend:
Sporothrix schenckii = assay: Antifungal activity against Sporothrix schenckii by broth microdilution method; type: functional, organism-based
Candida parapsilosis = assay: Antifungal activity against Candida parapsilosis ATCC 22019 by broth microdilution method; type: functional; conditions: Lodderomyces parapsilosis
Aspergillus fumigatus = assay: Antifungal activity against Aspergillus fumigatus by broth microdilution method; type: functional
Cryptococcus neoformans = assay: Antifungal activity against Cryptococcus neoformans by broth microdilution method; type: functional
Staphylococcus aureus = assay: Antibacterial activity against Staphylococcus aureus ATCC 25923 by broth microdilution method; type: functional, organism-based
Candida albicans = assay: Antifungal activity against Candida albicans by broth microdilution method; type: functional, organism-based
[1] = tested on: Trichophyton mentagrophytes; assay: Antifungal activity against Trichophyton mentagrophytes by broth microdilution method; type: functional, organism-based

Compound	MIC (Sporothrix schenckii)	IC50 (Sporothrix schenckii; read-out: IC50)	IC50 (Sporothrix schenckii; read-out: pIC50 (converted))	MIC (Candida parapsilosis)	MIC (Aspergillus fumigatus)	MIC (Cryptococcus neoformans)	MIC (Staphylococcus aureus)	IC50 (Staphylococcus aureus; read-out: IC50)	IC50 (Staphylococcus aureus; read-out: pIC50 (converted))	MIC [1]	IC50 ([1]; read-out: IC50)	IC50 ([1]; read-out: pIC50 (converted))	MIC (Candida albicans)	IC50 (Candida albicans; read-out: IC50)	IC50 (Candida albicans; read-out: pIC50 (converted))
O=[N+]([O-])c1cccc(S(=O)(=O)OC(CNCc2ccccc2)c2ccccc2)c1 (stereo unspecified)				> 50 µM	> 50 µM	> 50 µM	< 50 µM	0.842 µM	1.19 µM				< 50 µM	30.8 µM	30.8 µM
CC(C)(C)OC(=O)N(Cc1ccccc1)CC(OS(=O)(=O)c1cccc([N+](=O)[O-])c1)c1ccccc1 (stereo unspecified)	< 50 µM	5.95 µM	5.95 µM	> 50 µM	> 50 µM	> 50 µM									
COc1ccc(CN(CC(OS(=O)(=O)c2cccc([N+](=O)[O-])c2)c2ccccc2)C(=O)OC(C)(C)C)cc1 (stereo unspecified)	< 50 µM	6.24 µM	6.24 µM	> 50 µM	> 50 µM	> 50 µM				< 50 µM	2.24 µM	2.24 µM			
COc1ccc(CN(CC(OS(=O)(=O)c2ccc(F)cc2)c2ccccc2)C(=O)OC(C)(C)C)cc1 (stereo unspecified)	< 50 µM	23.2 µM	23.1 µM	> 50 µM	> 50 µM	> 50 µM				< 50 µM	2.76 µM	2.76 µM			
CC(C)c1cc(C(C)C)c(S(=O)(=O)OC(CN(Cc2ccccc2)C(=O)OC(C)(C)C)c2ccccc2)c(C(C)C)c1 (stereo unspecified)	< 50 µM	46.4 µM	46.4 µM	> 50 µM	> 50 µM	> 50 µM				< 50 µM	6.11 µM	6.11 µM	< 50 µM	12.5 µM	12.5 µM
CC(C)(C)OC(=O)N(Cc1ccccc1)CC(OS(=O)(=O)c1ccccc1C(F)(F)F)c1ccccc1 (stereo unspecified)	< 50 µM	28.4 µM	28.4 µM	> 50 µM	> 50 µM	> 50 µM				< 50 µM	24.4 µM	24.4 µM	< 50 µM	6.44 µM	6.44 µM
O=S(=O)(OC(CNCc1ccccc1)c1ccccc1)c1ccc(F)cc1 (stereo unspecified)				> 50 µM	> 50 µM	> 50 µM	< 50 µM	22.6 µM	22.6 µM	< 50 µM	10.2 µM	10.2 µM	< 50 µM	41.9 µM	41.9 µM
O=S(=O)(OC(CNCc1ccccc1)c1ccccc1)c1c(Cl)cccc1Cl (stereo unspecified)	< 50 µM	12 µM	12 µM	> 50 µM	> 50 µM	> 50 µM	< 50 µM	11.6 µM	11.6 µM	< 50 µM	44.7 µM	44.8 µM	< 50 µM	18 µM	18 µM
O=S(=O)(OC(CNCc1ccccc1)c1ccccc1)c1cccc(Cl)c1Cl (stereo unspecified)	< 50 µM	15.6 µM	15.6 µM	> 50 µM	> 50 µM	> 50 µM				< 50 µM	5.89 µM	5.89 µM			
CC(C)(C)OC(=O)N(Cc1ccc(F)cc1)CC(OS(=O)(=O)c1ccc(F)cc1)c1ccccc1 (stereo unspecified)				> 50 µM	> 50 µM	> 50 µM	< 50 µM	22.6 µM	22.6 µM						
CC(C)(C)OC(=O)N(Cc1ccc(F)cc1)CC(OS(=O)(=O)c1cccc([N+](=O)[O-])c1)c1ccccc1 (stereo unspecified)				> 50 µM	> 50 µM	> 50 µM	< 50 µM	39.9 µM	39.8 µM						

Second part, led by results:

MIC (Sporothrix schenckii)	IC50 (Sporothrix schenckii; read-out: IC50)	IC50 (Sporothrix schenckii; read-out: pIC50 (converted))	MIC (Candida parapsilosis)	MIC (Aspergillus fumigatus)	MIC (Cryptococcus neoformans)	MIC (Staphylococcus aureus)	IC50 (Staphylococcus aureus; read-out: IC50)	IC50 (Staphylococcus aureus; read-out: pIC50 (converted))	MIC [1]	IC50 ([1]; read-out: IC50)	IC50 ([1]; read-out: pIC50 (converted))	Compound	MIC (Candida albicans)	IC50 (Candida albicans; read-out: IC50)	IC50 (Candida albicans; read-out: pIC50 (converted))
< 50 µM	23.3 µM	23.3 µM	> 50 µM	> 50 µM	> 50 µM							CC(C)(C)OC(=O)N(Cc1ccc(Cl)c(Cl)c1)CC(OS(=O)(=O)c1cccc(Cl)c1Cl)c1ccccc1 (stereo unspecified)			
< 50 µM	10.7 µM	10.7 µM	> 50 µM	> 50 µM	> 50 µM							Cc1ccc(C(CN(Cc2ccccc2)C(=O)OC(C)(C)C)OS(=O)(=O)c2cccc(Cl)c2Cl)cc1 (stereo unspecified)			
< 50 µM	13.4 µM	13.4 µM	> 50 µM	> 50 µM	> 50 µM				< 50 µM	14.9 µM	14.9 µM	COc1ccc(C(CN(Cc2ccccc2)C(=O)OC(C)(C)C)OS(=O)(=O)c2cccc(Cl)c2Cl)cc1 (stereo unspecified)			
			> 50 µM	> 50 µM	> 50 µM				< 50 µM	4.39 µM	4.4 µM	Cc1ccc(C(CN(Cc2ccccc2)C(=O)OC(C)(C)C)OS(=O)(=O)c2c(Cl)cccc2Cl)cc1 (stereo unspecified)			
< 50 µM	43.3 µM	43.3 µM	> 50 µM	> 50 µM	> 50 µM	< 50 µM	15.3 µM	15.3 µM				CC(C)(C)OC(=O)N(Cc1ccc(Cl)c(Cl)c1)CC(OS(=O)(=O)c1ccc(F)cc1)c1ccccc1 (stereo unspecified)			
			> 50 µM	> 50 µM	> 50 µM				< 50 µM	13.5 µM	13.6 µM	COc1ccc(C(CN(Cc2ccccc2)C(=O)OC(C)(C)C)OS(=O)(=O)c2c(Cl)cccc2Cl)cc1 (stereo unspecified)			
			> 50 µM	> 50 µM	> 50 µM				< 50 µM	22.8 µM	22.9 µM	COc1ccc(C(CN(Cc2ccccc2)C(=O)OC(C)(C)C)OS(=O)(=O)c2ccc(F)cc2)cc1 (stereo unspecified)			
			> 50 µM	> 50 µM	> 50 µM	< 50 µM	12.5 µM	12.5 µM				CC(C)(C)OC(=O)N(Cc1ccc(F)cc1)CC(OS(=O)(=O)c1c(Cl)cccc1Cl)c1ccccc1 (stereo unspecified)			
< 50 µM	7.46 µM	7.46 µM	> 50 µM	> 50 µM	> 50 µM	< 50 µM	14.7 µM	14.7 µM	< 50 µM	0.53 µM		CC(C)(C)OC(=O)N(Cc1ccc(F)cc1)CC(OS(=O)(=O)c1cccc(Cl)c1Cl)c1ccccc1 (stereo unspecified)			
< 50 µM	26.7 µM	26.7 µM	> 50 µM	> 50 µM	> 50 µM				< 50 µM	0.33 µM		CC(C)(C)OC(=O)N(Cc1ccccc1)CC(OS(=O)(=O)c1cccc(Cl)c1Cl)c1ccccc1 (stereo unspecified)			
< 50 µM	24.4 µM	24.4 µM	> 50 µM	> 50 µM	> 50 µM							CC(C)(C)OC(=O)N(Cc1ccc(Cl)c(Cl)c1)CC(OS(=O)(=O)c1cccc([N+](=O)[O-])c1)c1ccccc1 (stereo unspecified)			
< 50 µM	31.2 µM	31.2 µM	> 50 µM	> 50 µM	> 50 µM				< 50 µM	12.6 µM	12.6 µM	Cc1cc(C)cc(S(=O)(=O)OC(CN(Cc2ccccc2)C(=O)OC(C)(C)C)c2ccccc2)c1 (stereo unspecified)	< 50 µM	41.6 µM	41.6 µM
